According to patent US8414911B2, “Photochemical therapy to affect mechanical and/or chemical properties of body tissue” (The Regents of the University of California, priority 2006, dated 2013):
“Also recorded” adds a separate entry of the source.

Experiments:
human and porcine sclera = human and porcine sclera in vitro; cited from earlier work
porcine sclera sections = experiment: Rheometric analysis of sclera sections (modulus pre- and post-treatment); details: photoinitiator alone, compared with photoinitiator plus PEGDM
Description: The ability of initiator with or without crosslinking compounds to strengthen the sclera was initially evaluated using rheometric analysis of tissue sections. Sclera sections (8 mm diameter) were cut from porcine eyes and tested on a TA Instruments AR1000 rheometer (using a cleated parallel plate geometry) to quantify changes in modulus pre- and post-treatment. Two example photoinitiators were selected for initial evaluation.

[1] = system: sclera of enucleated eyes; experiment: Ocular inflation model of myopia (enucleated eyes, elevated IOP 85 mmHg); parameters: species or system New Zealand White Rabbits; details: 0.3% soak 5 min, 10 mW/cm^2, 365 nm, 10 min anterior and 10 min posterior
Protocol: Stabilization of ocular shape is evaluated in vitro using pairs of enucleated eyes from young (˜1-2 weeks) New Zealand White Rabbits, one eye treated and the fellow eye as control. To mimic and accelerate aspects of the loading geometry present in vivo, the intact globes are mechanically tested by imposing an elevated intraocular pressure: a syringe connects the intraocular fluid to an elevated reservoir of Dulbecco's phosphate buffered saline (DPBS) while the exterior of the eye is immersed in DPBS at ambient pressure (FIG. 1).
The size and shape of the globes are simultaneously recorded from two orthogonal perspectives over time. To prepare eyes for the tests, the epithelium is optionally removed from the cornea with a cotton swab, and external fat is removed from the globe. (Note that permeation of the photoinitiator into tissue is examined separately below.) The eyes are then soaked in control (Dulbecco's PBS) or treatment solutions (e.g., 0.029 mM Eosin Y, 90 mM TEOA, in DPBS) for 5 min. After soaking, the eyes are patted dry to remove extra solution from the surface, and then irradiated for 5 min from the front and 5 min from the back with, e.g., 34 mW/cm^2 at 500±50 nm for Eosin Y/TEOA. […] Photographs taken every 10 minutes for approximately 24 hours are analyzed to quantify the extension of the cornea and sclera.

[2] = after use of topically applied proparacaine (Ehlers et al.); cited from earlier work

Row | Structure (SMILES) | increase of Young's modulus compared to untreated controls (human and porcine sclera) [%] | further results
1 | Cc1cc2nc3c(=O)[nH]c(=O)nc-3n(C[C@H](O)[C@H](O)[C@H](O)CO)c2cc1C [riboflavin-UVA, riboflavin] | 29 | –
2 | CC(C)(O)C(=O)c1ccc(OCCO)cc1 [compound 12959, 2-hydroxy-1-[4-(2-hydroxyethoxy)phenyl]-2-methyl-1-propanone] | – | increases in modulus (porcine sclera sections): comparable increases in modulus; stabilization of eye shape / sclera under elevated IOP [1]: hold a steady shape; also recorded: stabilize the sclera
3 | CCCOc1ccc(C(=O)OCCN(CC)CC)cc1N [proparacaine] | – | increases in drug delivery to the aqueous [2]: 4 fold
4 | O=CCCCC=O [Glutaraldehyde] | 122 | –
5 | O=CC(O)CO (stereo not drawn) [glyceraldehyde] | 34 | –
